According to PMC12656239, “Aryl Hydrocarbon Receptor-Mediated Disruption of Intestinal Epithelial Barrier Integrity by Dioxin Isomers” (Toxics, 2025):

Molecular target: aryl hydrocarbon receptor (AhR) (Homo sapiens, UniProt P35869)
Test: EROD induction in Caco-2 cells (endogenous AhR), abolished by AhR antagonist
Type: cell-based

SMILES: Clc1cc2c(cc1Cl)Oc1cc(Cl)c(Cl)cc1O2 [2,3,7,8-TCDD, 2,3,7,8-tetrachlorodibenzo-p-dioxin]
- EC50: 0.102 nM
